Consider 1 compound from patent US8309768B2, “FTY720-derived anticancer agents” (The Ohio State University Research Foundation, priority 2010, dated 2012).

The subject of this assay is CLL cells. Nature of the assay: ROS induction in CLL cells (dihydroethidium staining). Type of assay: cell-based. To be noted: 8 μM, untreated about 40%. The method, then: The induction of Reactive Oxygen Species (ROS) in CLL cells by OSU-2S was detected by staining OSU-2S 8 μM treated CLL cells with dihyroethidium. The ROS in the cells oxidizes DHE to ethidium staining the nucleus with a bright red fluorescence detected by flow cytometer. A hydrogen peroxide solution was used as a control.

Turning to `CCC[C@@](N)(CO)CCc1ccc(OCCCCCC(C)C)cc1` [OSU-2S, (S)-2-amino-2-(4-[(6-methylheptyl)-oxy]phenethyl)pentan-1-ol], the “DHE positive cell %” value is given as “about 70%”.
